In the NIST ThermoML archive (doi:10.1021/je700754k):
Numbers after ± are expanded uncertainties.

Key:
[1] = xn = mol fraction of the nth substance listed; details: 101 kPa, Liquid
[2] = excess molar enthalpy (molar enthalpy of mixing); xn = mol fraction of the nth substance listed; details: 303.15 K, 101 kPa, Liquid, Calvet calorimetry

CCCCn1cc[n+](C)c1.F[B-](F)(F)F [1-butyl-3-methylimidazolium tetrafluoroborate] + CCO
mass density [kg/m3], [1]
Details	293.15 K	303.15 K	313.15 K	323.15 K
x1 = 0.0517	854.59 ± 0.74	846.27 ± 0.76	837.83 ± 0.79	829.27 ± 0.82
x1 = 0.0918	895.67 ± 0.62	887.54 ± 0.64	879.27 ± 0.67	870.9 ± 0.69
x1 = 0.1479	943.11 ± 0.48	935.12 ± 0.5	927.02 ± 0.52	918.84 ± 0.55
x1 = 0.1995	980.07 ± 0.4	972.15 ± 0.41	964.15 ± 0.43	956.11 ± 0.45
x1 = 0.2518	1011.33 ± 0.38	1003.46 ± 0.36	995.56 ± 0.36	987.64 ± 0.38
x1 = 0.3228	1046.79 ± 0.46	1039.01 ± 0.44	1031.22 ± 0.42	1023.46 ± 0.41
x1 = 0.4219	1085.81 ± 0.57	1078.14 ± 0.54	1070.51 ± 0.52	1062.91 ± 0.5
x1 = 0.5356	1120.88 ± 0.67	1113.35 ± 0.64	1105.88 ± 0.62	1098.46 ± 0.6
x1 = 0.6244	1142.66 ± 0.72	1135.23 ± 0.7	1127.86 ± 0.68	1120.54 ± 0.66
x1 = 0.709	1160.24 ± 0.77	1152.89 ± 0.75	1145.59 ± 0.73	1138.37 ± 0.7
x1 = 0.8295	1181.36 ± 0.83	1174.12 ± 0.81	1166.93 ± 0.79	1159.8 ± 0.77
x1 = 0.9327	1196.33 ± 0.88	1189.16 ± 0.85	1182.04 ± 0.83	1174.97 ± 0.81
x1 = 1	1204.93 ± 0.9	1197.83 ± 0.88	1190.74 ± 0.86	1183.72 ± 0.83

[2]
Details	excess molar enthalpy [kcal/mol]
x1 = 0.0201	0.086 ± 0.00693
x1 = 0.0573	0.204 ± 0.0163
x1 = 0.1005	0.307 ± 0.0239
x1 = 0.1962	0.467 ± 0.0382
x1 = 0.3371	0.591 ± 0.0478
x1 = 0.4225	0.624 ± 0.0502
x1 = 0.5001	0.6 ± 0.0478
x1 = 0.5874	0.545 ± 0.043
x1 = 0.6333	0.49 ± 0.0406
x1 = 0.7422	0.399 ± 0.0311
x1 = 0.8291	0.277 ± 0.0222
x1 = 0.9257	0.149 ± 0.012

CCCCn1cc[n+](C)c1.F[B-](F)(F)F [1-butyl-3-methylimidazolium tetrafluoroborate] + C[N+](=O)[O-]
[1], x1 = 1
Details	mass density [kg/m3]
293.15 K	1204.99 ± 1.8
303.15 K	1197.89 ± 1.8
313.15 K	1190.81 ± 1.7
323.15 K	1183.78 ± 1.7

CCO [ethanol] + CCCCn1cc[n+](C)c1.COS(=O)(=O)[O-]
[1], x2 = 0
Details	mass density [kg/m3]
293.15 K	789.53 ± 0.94
303.15 K	780.94 ± 0.96
313.15 K	772.2 ± 0.99
323.15 K	763.28 ± 1

CCO [ethanol] + CCCCn1cc[n+](C)c1.F[B-](F)(F)F
[1], x2 = 0
Details	mass density [kg/m3]
293.15 K	789.38 ± 0.94
303.15 K	780.78 ± 0.96
313.15 K	772.04 ± 0.99
323.15 K	763.14 ± 1

C[N+](=O)[O-] [nitromethane] + CCCCn1cc[n+](C)c1.COS(=O)(=O)[O-]
[1], x2 = 0
Details	mass density [kg/m3]
293.15 K	1137.92 ± 1.9
303.15 K	1124.32 ± 1.8
313.15 K	1110.62 ± 1.7
323.15 K	1096.82 ± 1.6

C[N+](=O)[O-] [nitromethane] + CCCCn1cc[n+](C)c1.F[B-](F)(F)F
mass density [kg/m3], [1]
Details	293.15 K	303.15 K	313.15 K	323.15 K
x2 = 0	1137.98 ± 1.9	1124.39 ± 1.8	1110.68 ± 1.7	1096.88 ± 1.6
x2 = 0.0512	1154.27 ± 2	1142.08 ± 1.9	1129.84 ± 1.8	1117.57 ± 1.7
x2 = 0.0991	1164.29 ± 2	1152.98 ± 1.9	1141.66 ± 1.9	1130.32 ± 1.8
x2 = 0.1392	1170.56 ± 2	1159.82 ± 2	1149.08 ± 1.9	1138.35 ± 1.8
x2 = 0.2026	1178.15 ± 2	1168.09 ± 2	1158.06 ± 1.9	1148.05 ± 1.8
x2 = 0.2986	1186.08 ± 2	1176.78 ± 1.9	1167.52 ± 1.9	1158.31 ± 1.8
x2 = 0.3565	1189.62 ± 2	1180.67 ± 1.9	1171.76 ± 1.9	1162.9 ± 1.8
x2 = 0.3972	1191.64 ± 2	1182.9 ± 1.9	1174.2 ± 1.9	1165.55 ± 1.8
x2 = 0.4553	1194.13 ± 1.9	1185.65 ± 1.9	1177.21 ± 1.8	1168.83 ± 1.8
x2 = 0.5231	1196.42 ± 1.9	1188.18 ± 1.9	1179.99 ± 1.8	1171.87 ± 1.8
x2 = 0.5949	1198.48 ± 1.9	1190.48 ± 1.8	1182.53 ± 1.8	1174.65 ± 1.7
x2 = 0.6863	1200.57 ± 1.9	1192.82 ± 1.8	1185.11 ± 1.8	1177.48 ± 1.7
x2 = 0.8073	1202.6 ± 1.8	1195.13 ± 1.8	1187.69 ± 1.7	1180.33 ± 1.7
x2 = 0.8634	1203.37 ± 1.8	1196.01 ± 1.8	1188.69 ± 1.7	1181.43 ± 1.7

[2]
Details	excess molar enthalpy [kcal/mol]
x2 = 0.0016	-0.00167 ± 0.000239
x2 = 0.0273	-0.022 ± 0.00191
x2 = 0.0558	-0.0435 ± 0.00359
x2 = 0.1131	-0.0686 ± 0.0055
x2 = 0.202	-0.097 ± 0.00789
x2 = 0.3621	-0.116 ± 0.00932
x2 = 0.5067	-0.108 ± 0.0086
x2 = 0.6037	-0.0978 ± 0.00789
x2 = 0.7226	-0.0755 ± 0.00598
x2 = 0.8827	-0.038 ± 0.00311
